According to EP4682143A1, “PHARMACEUTICAL COMPOSITION CONTAINING EGFR INHIBITOR, AND PREPARATION METHOD THEREFOR AND USE THEREOF” (Convalife Pharmaceuticals Co., Ltd., priority 2023, dated 2024):
Read-outs that look alike come from different tables or passages of the source.

Key:
[1] = system: Cholangiocarcinoma PDX Model LD1-0060-200791; assay: Cholangiocarcinoma PDX model in vitro antiproliferation assay (CTG); format: cell-based; details: for IC50: 144 h; for IC50 / Maximum Inhibition Rate (%) / Minimum Inhibition Rate (%): cultured 6 days, CTG; for Slope: slope of inhibition curve
Experimental: Tumor tissues were surgically excised from the subcutaneous tumors of tumor-bearing mice and immersed in HBSS buffer. Non-tumor and necrotic tissues were removed in a biosafety cabinet, and the tissues were cut into small pieces of 1-3 mm^3. Tumor pieces were digested with collagenase at 37°C for 1-2 hours. Single-cell suspensions were collected through a mesh, and centrifuged at 1200 rpm for 3 minutes to remove the supernatant. […] High-concentration drug stocks were diluted 1000× with BIO-MPM-1 medium to prepare 20× intermediate concentrations. Each well of a 96-well plate received 7.5 µL of the corresponding 20× drug solution or BIO-MPM-1 containing 2% DMSO (final DMSO concentration 0.2%). Then 135 µL of cell suspension was added per well. Cells were cultured continuously for 6 days at 37°C. Afterwards, 50 µL of CTG reagent was added per well. After mixing, 80 µL of the solution was measured in a multifunctional microplate reader for ATP content. Signals from each well were recorded to generate inhibition curves and calculate parameters such as IC50.
Inhibition curves were plotted using Xlfit (IDBS) to determine parameters including maximum inhibition, minimum inhibition, absolute IC50, relative IC50, and slope.
Proliferation rate (fold increase) was calculated as: Proliferation rate = (Vday6Control−Vday6Blank)/(Vday0Control−Vday0Blank) [formula]

[2] = system: Ba/F3-EGFR-G719S cell line; assay: CellTiter-Glo (CTG) cell proliferation assay (Example A); format: cell-based; details: 72 hours, highest test concentration 1 µM
Experimental: Due to its high sensitivity and simple workflow, it is currently a widely used cell viability assay.
Cell viability was assessed by trypan blue exclusion to ensure viability above 90%. • c) Cells were adjusted to the desired density with complete growth medium and seeded into 96-well plates at 3,000 cells per well in 90 µL medium. • d) The seeded 96-well plates were incubated at 37°C under 5% CO2. • e) Ten-fold stock solutions of each compound were prepared, with the highest test concentration of 1 µM. Nine concentrations were generated by four-fold serial dilution. Subsequently, 10 µL of each diluted compound was transferred into the corresponding wells of the 96-well plates, with triplicate wells for each concentration. • f) The compound-treated 96-well plates were incubated for an additional 72 hours at 37°C under 5% CO2, followed by CTG analysis. • g) The CTG reagent was thawed and the cell plates were equilibrated to room temperature for 30 minutes. • h) An equal volume of CTG reagent was added to each well. • i) The plates were shaken on a plate shaker for 5 minutes to induce cell lysis. • j) Plates were incubated at room temperature for 20 minutes to stabilize the luminescent signal. • k) Luminescence was measured and data were collected.
Data were analyzed using GraphPad Prism 7.0 software. Nonlinear sigmoidal regression was applied to fit the dose-response curves, from which IC50 values were calculated.
Cell viability (%) was determined according to the following equation: Cell viability(%) = (Lumcompound−Lummedium control)/(Lumvehicle control−Lummedium control) × 100% [formula]

IC50 [2] | Compound | IC50 ([1]; read-out: Absolute IC50) | IC50 ([1]; read-out: Relative IC50) | Maximum Inhibition Rate (%) [1] | Minimum Inhibition Rate (%) [1] | Slope [1]
 | CNCc1ccc(-c2cc3cc(F)cc(C(N)=O)c3o2)cc1 [CVL218] | 5.77 µM | 7.08 µM | 110.0% | 6.4% | 1.57
 | c1cc(-c2nc(N3CCOCC3)c3oc4ccc(CN5CC6CC5CO6)cc4c3n2)c2cc[nH]c2c1 (stereo not drawn) [CVL237] | 3.48 µM | 3.41 µM | 99.5% | -10.0% | 9.51
 | CCOc1cc2ncc(C#N)c(Nc3ccc(OCc4ccccn4)c(Cl)c3)c2cc1NC(=O)/C=C/CN(C)C.O=C(O)/C=C\C(=O)O [Compound A009, (E)-N-(4-(3-chloro-4-(pyridin-2-ylmethoxy)anilino)-3-cyano-7-ethoxyquinolin-6-yl)-4-(dimethylamino)but-2-enamide maleate, reference compound] | 3.31 µM | 3.26 µM | 99.2% | -10.0% | 13.13
16.8 nM | CCOc1cc2ncc(C#N)c(Nc3ccc(OCc4ccccn4)c(Cl)c3)c2cc1NC(=O)/C=C/CN1CC(N(C)C)C1 [Compound A0901, (E)-N-(4-((3-chloro-4-(pyridin-2-ylmethoxy)phenyl)amino)-3-cyano-7-ethoxyquinolin-6-yl)-4-(3-(dimethylamino)azetidin-1-yl)but-2-enamide] |  |  |  |  | 
2.06 nM | CCOc1cc2ncc(C#N)c(Nc3ccc(OCc4ccccn4)c(Cl)c3)c2cc1NC(=O)/C=C/CN1CC(F)(F)C1 [Compound A0903, (E)-N-(4-((3-chloro-4-(pyridin-2-ylmethoxy)phenyl)amino)-3-cyano-7-ethoxyquinolin-6-yl)-4-(3,3-difluoroazetidin-1-yl)but-2-enamide] |  |  |  |  | 
69.6 nM | C=C(CN1CC(N(C)C)C1)C(=O)Nc1cc2c(Nc3ccc(OCc4ccccn4)c(Cl)c3)c(C#N)cnc2cc1OCC [Compound A0905, N-(4-((3-chloro-4-(pyridin-2-ylmethoxy)phenyl)amino)-3-cyano-7-ethoxyquinolin-6-yl)-2-((3-(dimethylamino)azetidin-1-yl)methyl)propenamide] |  |  |  |  | 
152 nM | C=C(CN1CCC(N(C)C)CC1)C(=O)Nc1cc2c(Nc3ccc(OCc4ccccn4)c(Cl)c3)c(C#N)cnc2cc1OCC [Compound A0906, N-(4-((3-chloro-4-(pyridin-2-ylmethoxy)phenyl)amino)-3-cyano-7-ethoxyquinolin-6-yl)-2-((4-(dimethylamino)piperidin-1-yl)methyl)propenamide] |  |  |  |  | 
2.18 nM | (E)-N-(4-((3-chloro-4-(pyridin-2-ylmethoxy)phenyl)amino)-3-cyano-7-ethoxyquinolin-6-yl)-4-(methanesulfonamido)but-2-enamide [Compound A0904] |  |  |  |  | 

Compound | IC50 [2] | IC50 ([1]; read-out: Absolute IC50) | IC50 ([1]; read-out: Relative IC50) | Maximum Inhibition Rate (%) [1] | Minimum Inhibition Rate (%) [1] | Slope [1]
(E)-N-(4-((3-chloro-4-(pyridin-2-ylmethoxy)phenyl)amino)-3-cyano-7-ethoxyquinolin-6-yl)-4-(3,3-difluoroazetidin-1-yl)but-2-enamide [Compound A0902] | 2.53 nM |  |  |  |  | 
